From patent US10399965B2 (INNOVATIVE PHARMACOLOGY RESEARCH OOO (IPHAR), priority 2016, dated 2019)

Key:
[1] = Acute toxicity in mice, single oral administration; conditions: CD-1, mouse, in vivo, oral; per os, male mice, single dose
Description: (§1) Assessment of acute toxicity of the disclosed compound was performed using outbred male CD-1 mice with SPF status. The test compound was administered in 62.5 mg/kg, 125 mg/kg, 250 mg/kg, 500 mg/kg, 1000 mg/kg, 2000 mg/kg and 5000 mg/kg doses (5 animals per group) in 0.5 ml volume once orally as a suspension in 0.5% aqueous solution of carboxymethyl cellulose.

outbred male CD-1 mice = assay: Acute toxicity in mice, single oral administration; conditions: male, CD-1, mouse, in vivo
Description: as §1

[2] = target: T1, Recombinant human tyrosyl-DNA-phosphodiesterase 1 (Tdp1) (Homo sapiens, UniProt Q9NUW8); assay: Tdp1 inhibition, removal of BHQ1 quencher from 3'-end of FAM-labelled oligonucleotide (fluorescence); type: biochemical; conditions: 1.3 nM Tdp1, 50 nM oligonucleotide, pH 8.0; read-out: IC50 (concentration of an inhibitor that reduces an enzyme's activity by half) towards Tdp1
T1 construct: made in house; host or cells: Escherichia coli
T1 sequence (Q9NUW8 whole entry): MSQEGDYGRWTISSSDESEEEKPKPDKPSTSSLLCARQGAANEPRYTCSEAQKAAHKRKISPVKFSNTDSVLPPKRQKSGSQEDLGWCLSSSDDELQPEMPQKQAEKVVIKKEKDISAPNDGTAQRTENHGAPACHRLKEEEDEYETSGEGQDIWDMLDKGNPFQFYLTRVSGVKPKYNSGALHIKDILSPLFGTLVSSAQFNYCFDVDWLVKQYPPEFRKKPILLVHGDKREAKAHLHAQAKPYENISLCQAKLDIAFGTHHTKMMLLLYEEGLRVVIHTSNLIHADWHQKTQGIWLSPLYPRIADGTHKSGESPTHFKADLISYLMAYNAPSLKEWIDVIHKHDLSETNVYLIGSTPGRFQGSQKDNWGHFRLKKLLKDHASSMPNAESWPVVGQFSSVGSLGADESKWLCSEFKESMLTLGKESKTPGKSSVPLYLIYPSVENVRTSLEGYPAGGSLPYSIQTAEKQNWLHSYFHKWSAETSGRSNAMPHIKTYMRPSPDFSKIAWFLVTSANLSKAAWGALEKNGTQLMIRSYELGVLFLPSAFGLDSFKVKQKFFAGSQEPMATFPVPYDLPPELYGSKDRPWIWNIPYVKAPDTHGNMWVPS
Source text: Recombinant human tyrosyl-DNA-phosphodiesterase 1 (EC number 3.1.4.) was expressed in an Escherichia coli system (plasmid pET 16B-Tdp1 provided by Dr. K. W. Caldecott, Sussex University, UK) and isolated as described in [2, 32]. The reaction of removing Black Hole Quencher 1 (BHQ1) from 3′-end of an oligonucleotide, catalyzed by Tdp1, is used as the test system for determining the inhibitory properties of the test compounds. At the 5′-end of an oligonucleotide there is (5,6)-FAM, a fluorophore whose fluorescence intensity increases after removing the quencher. POLARstar OPTIMA fluorimeter (BMG LABTECH) was used to measure fluorescence.
The reaction mixtures (volume 200 μl) contained the buffer (50 mM Tris-HCl, pH 8.0; 50 mM NaCl; 7 mM mercaptoethanol), 50 nM oligonucleotide and different concentrations of the inhibitor. The reaction was initiated by adding Tdp1 to a final concentration of 1.3 nM. The measurements were performed in linear range of dependence of reaction rate to time (up to 8 minutes) each 55 seconds. The action of the disclosed compounds was assessed by IC50 value (concentration of an inhibitor that reduces an enzyme's activity by half). IC50 value was calculated using MARS Data Analisys 2.0 software (BMG LABTECH).
A typical curve of relation of inhibitor concentration to the rate of reaction, catalyzed by Tdp1, is presented at FIG. 2.

## CC(=O)C1=C(O)C=C2Oc3c(-c4csc(N/N=C/c5ccc(Br)cc5)n4)c(O)c(C)c(O)c3C2(C)C1=O (stereo not drawn) [Compound I, 2-acetyl-6-(2-(2-(4-bromobenzylidene)hydrazinyl)thiazole-4-yl)-3,7,9-trihydroxy-8,9b-dimethyldibenzo[b,d] furan-1(9bh)-one]
[1]
  LD50: > 5000 mg/kg
Outbred male CD-1 mice
  maximal tolerated dose: no less than 5000 mg/kg
[2]
  IC50: 26 ± 11 nM
